The assay deals with T1, human EGF receptor (Homo sapiens, UniProt P00533).
T1 construct: expressed in transfected cells; host or cells: NIH3T3 clone C7 (EGFR/C7; mouse fibroblasts)
In words: EGF-receptor whole cell kinase assay (EGFR-3T3). Type of assay: cell-based. On the procedure:
The following target cells were used for cellular kinaseassays: NIH3T3 clone C7 (Honegger et al., supra) engineered to over-express human EGF receptor; NIH3T3 cells engineered to over-express a chimeric receptor containing the EGFR extracellular domain and the HER2 intracellular kinase domain; the human mammary carcinoma line BT474 (ATCC HTB2) expressing HER2; and the human glioblastoma line U1242 that expresses PDGFR-β. Growth assays were carried out using human mammary epithelial SKBR3 (ATCC HTB30) cells, SKOV3 (ATCC HTB77) human ovarian cancer cell line, A431 cells, MCF7 human breast carcinoma cells, MCF7 cells overexpress the HER2 kinase (MCF7-HER2), NIH3T3 cells, and NIH3T3 cells overexpressing the HER2 kinase (3T3-HER2).
Unless otherwise stated the effect of various compounds on receptor tyrosine kinases were assayed as described in this section.
1. EGF-receptor Whole Cell Kinase Assay
EGFR kinase activity (EGFR-3T3 assay) in whole cells was measured as described below:
The following protocol was used:
A. Coat ELISA plates (Corning, 96 well, Cat. #25805-96) with 05-101 antibody at 0.5 μg per well in PBS, 150 μl final volume/well, and store overnight at 4° C. Coated plates are good for up to 10 days when stored at 4° C.
B. On day of use, remove coating buffer and replace with blocking buffer (5% Carnation Instant Non-Fat Dry Milk in PBS). Incubate the plate, shaking, at room temperature (about 23° C. to 25° C.) for 30 minutes. Just prior to use, remove blocking buffer and wash plate 4 times with TBST buffer.
A. EGFR/C7 cell line (Honegger, et al., Cell 51:199-209, 1987) can be use for this assay.
B. Choose dishes having 80-90% confluence for the experiment. Trypsinize cells and stop reaction by adding 10% CS DMEM medium. Suspend cells in DMEM medium (10% CS DMEM medium) and centrifuge once at 1000 rpm, and once at room temperature for 5 minutes.
C. Resuspend cells in seeding medium (DMEM, 0.5% bovine serum), and count the cells using trypan blue. Viability above 90% is acceptable. Seed cells in DMEM medium (0.5% bovine serum) at a density of 10,000 cells per well, 100 μl per well, in a 96 well microtiter plate. Incubate seeded cells in 5% CO2 at 37° C. for about 40 hours.
A. Check seeded cells for contamination using an inverted microscope. Dilute drug stock (10 mg/ml in DMSO) 1:10 in DMEM medium, then transfer 5 μl to a test well for a final drug dilution of 1:200 and a final DMSO concentration of […]. Control wells receive DMSO alone. Incubate in 5% CO2 at 37° C. for one hour.
B. Prepare EGF ligand: dilute stock EGF in DMEM so that upon transfer of 10 μl dilute EGF (1:12 dilution), 25 nM final concentration is attained.
C. Prepare fresh HNTG* sufficient for 100 μl per well; and place on ice.
D. After two hours incubation with drug, add prepared EGF ligand to cells, 10 μl per well, to yield a final concentration of 25 nM. Control wells receive DMEM alone. Incubate, shaking, at room temperature, for 5 minutes.
E. Remove drug, EGF, and DMEM. Wash cells twice with PBS. Transfer HNTG* to cells, 100 μl per well. Place on ice for 5 minutes. Meanwhile, remove blocking buffer from other ELISA plate and wash with TBST as described above.
F. With a pipette tip securely fitted to a micropipettor, scrape cells from plate and homogenize cell material by repeatedly aspirating and dispensing the HNTG* lysis buffer. Transfer lysate to a coated, blocked, and washed ELISA plate. Incubate shaking at room temperature for one hour.
G. Remove lysate and wash 4 times with TBST. Transfer freshly diluted anti-Ptyr antibody to ELISA plate at 100 μl per well. Incubate shaking at room temperature for 30 minutes in the presence of the anti-Ptyr antiserum (1:3000 dilution in TBST).
H. Remove the anti-Ptyr antibody and wash 4 times with TBST. Transfer the freshly diluted TAGO anti-rabbit IgG antibody to the ELISA plate at 100 μl per well.

The mark [1] stands for this setting: Table V, read-out: Estimated IC50 Cellular Kinase Assays EGFR (EGF-3T3).
Setting [2] is: Table VI, cellular kinase assay, read-out: EGFR-3T3.

Values joined by “and” are separate entries in the source; they are usually repeats but may differ in a detail not shown here. Identical values can stand only once. Like-named read-outs stand apart in the source and are kept apart here. Some results are limits rather than exact numbers.

Consider `CC(C)(C)c1cc(/C=C(\C#N)C(N)=S)cc(C(C)(C)C)c1O` [Compound M11], for which the IC50 is 40 µM under setting [1] and 21 µM under setting [2].
Regarding `Cc1cc(/C=C(\C#N)S(=O)(=O)c2ccccn2)cc(C)c1O` [Compound M32], the IC50 under setting [2] worked out at 64 µM.
With `N#C/C(=C\c1ccc(O)c(O)c1)C(=S)NCc1ccccc1` [Compound M13], the IC50 reads like this: under setting [1], more than 100 µM; under setting [2], more than 100 µM.
`CC(C)(C)c1cc(/C=C(\C#N)S(=O)(=O)c2ccccn2)cc(C(C)(C)C)c1O` [Compound M34, (E)-3-(3,5-di-t-Butyl-4-hydroxyphenyl)-2-[(pyrid-2-yl)sulfonyl]acrylonitrile]: the IC50 under setting [2] is more than 100 µM.
The same measure, in the same setting: with `CC(C)(C)c1cc(/C=C(\C#N)S(=O)(=O)CC#N)cc(C(C)(C)C)c1O` [Compound M36, (E)-3-(3,5-di-t-Butyl-4-hydroxyphenyl)-2-(cyanomethylsulfonyl)acrylonitrile] the figure was 56 µM.
Regarding `CC(C)c1cc(/C=C(\C#N)S(=O)(=O)CC#N)cc(C(C)C)c1O` [Compound M27], the IC50 under setting [2] was more than 50 µM.
With `N#C/C(=C\c1ccc(O)c(O)c1)C(=O)Nc1cccc(C(F)(F)F)c1` [Compound M15], the IC50 was more than 100 µM under setting [1] and more than 100 µM under setting [2].
With `CC(C)(C)c1cc(/C=C(\C#N)C(=O)Nc2ccc(C(F)(F)F)cc2)cc(C(C)(C)C)c1O` [Compound M35, (E)-3-(3,5-di-t-Butyl-4-hydroxyphenyl)-2-[(4-trifluoromethyl)phenylaminocarbonyl]acrylonitrile], the IC50 under setting [2] is more than 100 µM.
Turning to `CC(C)(C)c1cc(/C=C(\C#N)S(=O)(=O)c2ccccc2)cc(C(C)(C)C)c1O` [Compound M33, (E)-3-(3,5-di-t-Butyl-4-hydroxyphenyl)-2-(phenylsulfonyl)acrylonitrile], under setting [2], the IC50 was more than 100 µM.
Consider `N#C/C(=C\c1cc(O)c(O)c(I)c1)C(=O)NCCCc1ccccc1` [Compound M16], for which the IC50 was 4 µM and 4.4 µM under setting [1]; 9 µM under setting [2].
With “(E,E)-2-[[-Cyano-2-(3,5-diisopropyl-4-hydroxyphenyl)ethenyl]sulfonyl]-3-(3,5-di-t-butyl-4-hydroxyphenyl)acrylonitrile [Compound M37]”, the IC50 under setting [2] is more than 100 µM.
On the same count and under the same terms, with `CC(C)(C)c1cc(/C=C(\C#N)C(=O)NCCCc2ccccc2)cc(C(C)(C)C)c1O` [Compound M20, (E)-3-(3,5-di-t-Butyl-4-hydroxyphenyl)-2-[(3-phenyl-n-propyl)aminocarbonyl]acrylonitrile] the figure was more than 100 µM; with `Cc1cc(/C=C(\C#N)S(=O)(=O)c2ccccc2)cc(C)c1O` [Compound M31], more than 100 µM; with `CC(C)c1cc(/C=C(\C#N)S(=O)(=O)c2ccccc2)cc(C(C)C)c1O` [Compound M30], 61 µM.
Still for that read-out and setting: under `CC(C)c1cc(/C=C(\C#N)C(=S)NCCCc2ccccc2)cc(C(C)C)c1O` [Compound M24, (E)-3-(3,5-Diisopropyl-4-hyrdroxyphenyl)-2-[(3-phenyl-n-propyl)aminothiocarbonyl]acrylonitrile] stands more than 50 µM; under `CC(C)c1cc(/C=C(\C#N)C(=O)NCCCc2ccccc2)cc(C(C)C)c1O` [Compound M21, (E)-3-(3,5-Diisopropyl-4-hydroxyphenyl)-2-[(3-phenyl-n-propyl)aminocarbonyl]acrylonitrile], more than 100 µM; under `CC(C)c1cc(/C=C(\C#N)S(=O)(=O)c2ccccn2)cc(C(C)C)c1O` [Compound M26], more than 100 µM.
On the same count and under the same terms, with `CC(C)c1cc(C=C(C#N)C(N)=C(C#N)C#N)cc(C(C)C)c1O` [Compound M22, (E)-2-(1-Amino-2,2-dicyanoethenyl-3-(3,5-diisopropyl-4-hydroxyphenyl)acrylonitrile)] the figure was more than 50 µM.
Take `CC(C)c1cc(/C=C(\C#N)S(=O)(=O)/C(C#N)=C/c2cc(C(C)C)c(O)c(C(C)C)c2)cc(C(C)C)c1O` [Compound M29]: the IC50 under setting [2] is more than 50 µM.

Source of the values: patent publication US6596878B2, “Methods and compositions for inhibiting cell proliferative disorders” (Yissum Research & Development Company of the Hebrew …, priority 1994, dated 2003).
